Laboratory results published in PubChem BioAssay (NCI).
Several values for one entry are separate records, joined by “and”; a condition that tells them apart may be missing. Equal values may be shown once.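 Method: 48-hour compound exposure of cells in 96-well plates, five concentrations, linear interpolation of endpoints. GI50 marks 50% less growth. TGI marks complete inhibition of growth.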

Legend:
Test in all cases: DTP human tumour cell line panel, 48 h
UACC-62 melanoma = test system: UACC-62 melanoma
SF-268 CNS = test system: SF-268 CNS
HOP-92 NSCLC = test system: HOP-92 NSCLC
TK-10 renal = test system: TK-10 renal
HOP-62 NSCLC = test system: HOP-62 NSCLC
K-562 leukemia = test system: K-562 leukemia
UO-31 renal = test system: UO-31 renal
U251 CNS = test system: U251 CNS
HCT-116 colon = test system: HCT-116 colon
RXF 393 renal = test system: RXF 393 renal

## O=C1NCC(NC(=O)C(F)(F)F)c2c(Br)sc(Br)c21 (stereo not drawn)
UACC-62 melanoma
  TGI: > 100 µM
SF-268 CNS
  TGI: > 100 µM
HOP-92 NSCLC
  TGI: > 100 µM
TK-10 renal
  TGI: > 100 µM
HOP-62 NSCLC
  TGI: > 100 µM
K-562 leukemia
  TGI: > 100 µM
UO-31 renal
  TGI: > 100 µM
U251 CNS
  TGI: > 100 µM
HCT-116 colon
  TGI: > 100 µM
RXF 393 renal
  TGI: > 100 µM

## CNc1ncnc2c1cnn2COCC(O)CO (stereo not drawn)
UACC-62 melanoma
  TGI: > 100 µM
SF-268 CNS
  TGI: > 100 µM
HOP-92 NSCLC
  TGI: > 100 µM
TK-10 renal
  TGI: > 100 µM
HOP-62 NSCLC
  TGI: > 100 µM
K-562 leukemia
  TGI: > 100 µM
UO-31 renal
  TGI: > 100 µM
U251 CNS
  TGI: > 100 µM
HCT-116 colon
  TGI: > 100 µM
RXF 393 renal
  TGI: > 100 µM

## Cc1c(N2C(=O)C(Cl)C2c2ccc(Cl)cc2)c(=O)n(-c2ccccc2)n1C (stereo not drawn)
UACC-62 melanoma
  TGI: > 100 µM
SF-268 CNS
  TGI: > 100 µM
HOP-92 NSCLC
  TGI: > 100 µM
TK-10 renal
  TGI: > 100 µM
HOP-62 NSCLC
  TGI: > 100 µM
K-562 leukemia
  TGI: > 100 µM
UO-31 renal
  TGI: > 100 µM
U251 CNS
  TGI: > 100 µM
HCT-116 colon
  TGI: 36 µM
RXF 393 renal
  TGI: > 100 µM

## Nc1ccc(-c2nc3ccccc3s2)cc1C(F)(F)F
UACC-62 melanoma
  TGI: 30.6 µM
SF-268 CNS
  TGI: 30.4 µM
HOP-92 NSCLC
  TGI: 33.2 µM
TK-10 renal
  TGI: 26 µM
HOP-62 NSCLC
  TGI: 30 µM
K-562 leukemia
  TGI: 46.6 µM
UO-31 renal
  TGI: 29.4 µM
U251 CNS
  TGI: 28.7 µM
HCT-116 colon
  TGI: 26.1 µM
RXF 393 renal
  TGI: 21.9 µM

## COc1ccc(/C=C2\C[C@H]3[C@@H]4CCC5=C/C(=N/O)CC[C@]5(C)[C@H]4CC[C@]3(C)\C2=N\O)cc1OC
UACC-62 melanoma
  TGI: > 100 µM
SF-268 CNS
  TGI: > 100 µM
HOP-92 NSCLC
  TGI: > 100 µM
HOP-62 NSCLC
  TGI: > 100 µM
K-562 leukemia
  TGI: > 100 µM
UO-31 renal
  TGI: > 100 µM
HCT-116 colon
  TGI: > 100 µM
RXF 393 renal
  TGI: > 100 µM

## O=C(O)C(SC1=NNC2(C(=O)N1)c1ccccc1-c1ccccc12)SC1=NNC2(C(=O)N1)c1ccccc1-c1ccccc12
UACC-62 melanoma
  TGI: > 10 µM
SF-268 CNS
  TGI: > 10 µM
HOP-92 NSCLC
  TGI: > 10 µM
TK-10 renal
  TGI: > 10 µM
HOP-62 NSCLC
  TGI: > 10 µM
K-562 leukemia
  TGI: > 10 µM
UO-31 renal
  TGI: > 10 µM
U251 CNS
  TGI: > 10 µM
HCT-116 colon
  TGI: > 10 µM
RXF 393 renal
  TGI: > 10 µM

## O=C1NCCS(=O)(=O)N[C@@H](CC2=CC=CCC2)C(=O)N2CCCC12 (stereo partly drawn)
UACC-62 melanoma
  TGI: > 100 µM
SF-268 CNS
  TGI: > 100 µM
HOP-92 NSCLC
  TGI: > 100 µM
TK-10 renal
  TGI: > 100 µM
HOP-62 NSCLC
  TGI: > 100 µM
K-562 leukemia
  TGI: > 100 µM
UO-31 renal
  TGI: > 100 µM
U251 CNS
  TGI: > 100 µM
HCT-116 colon
  TGI: > 100 µM
RXF 393 renal
  TGI: > 100 µM

## O=C(NCCCN(CCCCN(CCCNC(=O)C(F)(F)F)Cc1ccc2ccccc2c1)Cc1ccc2ccccc2c1)C(F)(F)F
UACC-62 melanoma
  TGI: 5.41 µM
SF-268 CNS
  TGI: > 100 µM
HOP-92 NSCLC
  TGI: > 100 µM
TK-10 renal
  TGI: > 100 µM
HOP-62 NSCLC
  TGI: > 100 µM
K-562 leukemia
  TGI: 7.34 µM
UO-31 renal
  TGI: > 100 µM
U251 CNS
  TGI: > 100 µM
HCT-116 colon
  TGI: > 100 µM
RXF 393 renal
  TGI: > 100 µM

## CC1(C)C2CC(=O)C1(C)C(O)C2Br (stereo not drawn)
UACC-62 melanoma
  TGI: > 100 µM
SF-268 CNS
  TGI: > 100 µM
HOP-92 NSCLC
  TGI: > 100 µM
TK-10 renal
  TGI: > 100 µM
HOP-62 NSCLC
  TGI: > 100 µM
K-562 leukemia
  TGI: > 100 µM
UO-31 renal
  TGI: > 100 µM
U251 CNS
  TGI: > 100 µM
HCT-116 colon
  TGI: > 100 µM
RXF 393 renal
  TGI: > 100 µM

## NC(CC1=CS(=O)(=O)c2ccc(Cl)cc21)C(=O)O (stereo not drawn)
UACC-62 melanoma
  TGI: > 100 µM
SF-268 CNS
  TGI: > 100 µM
HOP-92 NSCLC
  TGI: > 100 µM
TK-10 renal
  TGI: > 100 µM
HOP-62 NSCLC
  TGI: > 100 µM
K-562 leukemia
  TGI: > 100 µM
U251 CNS
  TGI: > 100 µM
HCT-116 colon
  TGI: > 100 µM
RXF 393 renal
  TGI: > 100 µM

## COc1c(O)c2c3c(c(C)cc(O)c3c1O)C(=O)C(O)(C(C)(C)C(C)=O)C2=O (stereo not drawn)
UACC-62 melanoma
  GI50: 39.9 µM and > 100 µM
  TGI: > 100 µM
SF-268 CNS
  TGI: > 100 µM
HOP-92 NSCLC
  TGI: > 100 µM
TK-10 renal
  TGI: > 100 µM
HOP-62 NSCLC
  TGI: > 100 µM
K-562 leukemia
  GI50: 34.4 µM and > 100 µM
  TGI: > 100 µM
UO-31 renal
  TGI: > 100 µM
U251 CNS
  TGI: > 100 µM
HCT-116 colon
  TGI: > 100 µM
RXF 393 renal
  TGI: > 100 µM

## Nc1nc(Cl)cc(NCC2(CO)CCC(CCc3ccccc3)C2)n1 (stereo not drawn)
UACC-62 melanoma
  TGI: 28.3 µM
SF-268 CNS
  TGI: 35.6 µM
HOP-92 NSCLC
  TGI: 33.4 µM
TK-10 renal
  TGI: 48.9 µM
HOP-62 NSCLC
  TGI: 23.1 µM
K-562 leukemia
  TGI: 41.6 µM
UO-31 renal
  TGI: 33.3 µM
U251 CNS
  TGI: 31.1 µM
HCT-116 colon
  TGI: 21.9 µM
RXF 393 renal
  TGI: 29.9 µM

## COc1ccc(-c2c3c([nH]c(=S)c2C#N)CC(C)(C)CC3=O)cc1
UACC-62 melanoma
  TGI: > 100 µM
SF-268 CNS
  TGI: > 100 µM
HOP-92 NSCLC
  TGI: > 100 µM
TK-10 renal
  TGI: > 100 µM
HOP-62 NSCLC
  TGI: > 100 µM
K-562 leukemia
  TGI: > 100 µM
UO-31 renal
  TGI: > 100 µM
U251 CNS
  TGI: > 100 µM
HCT-116 colon
  TGI: > 100 µM
RXF 393 renal
  TGI: > 100 µM

## N/C(=N\S(=O)(=O)c1c(C(F)(F)F)cccc1C(F)(F)F)Nc1ccc(Cl)cc1
UACC-62 melanoma
  TGI: 50.5 µM
SF-268 CNS
  TGI: > 100 µM
HOP-92 NSCLC
  TGI: 43.6 µM
TK-10 renal
  TGI: 65 µM
HOP-62 NSCLC
  TGI: > 100 µM
K-562 leukemia
  TGI: > 100 µM
UO-31 renal
  TGI: 6.35 µM
U251 CNS
  TGI: 36 µM
HCT-116 colon
  TGI: > 100 µM
RXF 393 renal
  TGI: > 100 µM

## O=c1ccn(C2OC(CO)C(P(=O)(O)O)C2O)c(=O)[nH]1 (stereo not drawn)
UACC-62 melanoma
  TGI: > 100 µM
SF-268 CNS
  TGI: > 100 µM
HOP-92 NSCLC
  TGI: > 100 µM
TK-10 renal
  TGI: > 100 µM
HOP-62 NSCLC
  TGI: > 100 µM
K-562 leukemia
  TGI: > 100 µM
UO-31 renal
  TGI: > 100 µM
U251 CNS
  TGI: > 100 µM
HCT-116 colon
  TGI: > 100 µM
RXF 393 renal
  TGI: > 100 µM

## ClC(Cl)=C1C(=C(Cl)Cl)C(Cl)(Cl)C1(Cl)Cl
UACC-62 melanoma
  TGI: 5.36 µM
SF-268 CNS
  TGI: 9.22 µM
HOP-92 NSCLC
  TGI: 4.5 µM
TK-10 renal
  TGI: 11 µM
HOP-62 NSCLC
  TGI: 22.1 µM
K-562 leukemia
  GI50: 0.532 µM
  TGI: 5.62 µM
UO-31 renal
  TGI: 9.07 µM
U251 CNS
  TGI: 13.9 µM
HCT-116 colon
  TGI: 3.73 µM
RXF 393 renal
  TGI: 3.26 µM

## Cc1cc(-c2nc3ccccc3s2)ccc1NC(=O)[C@@H](N)CCCCN
UACC-62 melanoma
  TGI: 29.2 µM
SF-268 CNS
  TGI: 14.5 µM
HOP-92 NSCLC
  TGI: 33.3 µM
TK-10 renal
  TGI: 23.2 µM
HOP-62 NSCLC
  TGI: 25.9 µM
K-562 leukemia
  TGI: > 54 µM
UO-31 renal
  TGI: 19.3 µM
U251 CNS
  TGI: 9.88 µM
HCT-116 colon
  TGI: 19.9 µM
RXF 393 renal
  TGI: 16.5 µM

## COc1cc(-c2cc(=O)c3cc4c(=O)cc(-c5cc(OC)c(OC)c(OC)c5)oc4cc3o2)cc(OC)c1OC
UACC-62 melanoma
  TGI: > 64.5 µM
SF-268 CNS
  TGI: > 94.7 µM
HOP-92 NSCLC
  TGI: 43.3 µM
TK-10 renal
  TGI: 42.5 µM
HOP-62 NSCLC
  TGI: 26.4 µM
K-562 leukemia
  TGI: > 56 µM
UO-31 renal
  TGI: > 100 µM
U251 CNS
  TGI: 23.4 µM
HCT-116 colon
  TGI: > 100 µM
RXF 393 renal
  TGI: 26.4 µM

## C[C@@H](Cl)[C@H]1CCCN(Cc2ccc(Br)cc2)C1
UACC-62 melanoma
  TGI: > 12.5 µM
SF-268 CNS
  TGI: > 12.5 µM
HOP-92 NSCLC
  TGI: > 12.5 µM
TK-10 renal
  TGI: > 12.5 µM
HOP-62 NSCLC
  TGI: > 12.5 µM
K-562 leukemia
  TGI: > 12.5 µM
UO-31 renal
  TGI: > 12.5 µM
U251 CNS
  TGI: > 12.5 µM
RXF 393 renal
  TGI: > 12.5 µM

## Cc1ccc(CC[P+](=O)CCc2ccc(C)nc2)cn1
UACC-62 melanoma
  TGI: > 100 µM
SF-268 CNS
  TGI: > 100 µM
HOP-92 NSCLC
  TGI: > 100 µM
TK-10 renal
  TGI: > 100 µM
HOP-62 NSCLC
  TGI: > 100 µM
K-562 leukemia
  TGI: > 100 µM
U251 CNS
  TGI: > 100 µM
HCT-116 colon
  TGI: > 100 µM
RXF 393 renal
  TGI: > 100 µM
